Test results: US10822317B2, “Methods and compositions for wound healing” (QBiotics Limited, priority 2013, dated 2020)

What was measured:
HaCaT cells = assay: HaCaT scratch repopulation with Mitomycin C (migration study); assay type: cell-based, human; conditions: with 1 μg/mL Mitomycin C; 0.001 to 1.0 μg/mL; p<0.05
[1] = test system: mouse stroma of human SK-Mel-28 xenografts; assay: Gene expression in mouse stroma of human tumour xenografts; assay type: in vivo; conditions: 30 μg intratumoural
Procedure: Mouse stroma in human tumour xenografts were obtained from mice in which the Sk-Mel-28 human melanoma cell line was injected subcutaneously into 2 sites on the flanks of each BALB/c FoxnInu mouse (2×10^6 cells/site) and allowed to grow to approximately 7 mm diameter. Each tumour was then injected with 50 μL of 20% propylene glycol containing 30 μg Compound 1 or with 50 µL of 20% propylene glycol. At different times after injection a mouse was euthanased and the tumours harvested, the skin covering removed, and the intact tumours stored at −80° C.
RNA was extracted from 30 mg of frozen tumour or 1×10^7 cells using the QiagenRNeasyPlus Mini Kit, according to manufacturer's instructions, then quantitated with a NanoDrop instrument and integrity confirmed on denaturing agarose gels bearing a 1 kb DNA marker and stained with ethidium bromide.
Approximately 500 ng of total unlabelled RNA was adjusted to a final volume of 11 μL with nuclease-free water. The RNA was incubated with 9 μL of the reverse transcriptase master mix (1 μL of T7 Oligo (dT) Primer, 2 μL of 10× first strand buffer, 4 μL of dNTP mix, 1 μL of RNase inhibitor and 1 μL of ArrayScript) at 42° C. for 2 hr. This was followed by the second strand cDNA synthesis step which involved a further incubation at 16° C. for 2 hr with 80 µL of the second strand master mix (63 μL nuclease-free water, 10 μL 10× second strand buffer, 4 μL dNTP mix, […] and 1 μL RNase H). The cDNA was purified by filtering through a cDNA Filter Cartridge with 250 μL of cDNA binding buffer and washing with 500 μL of the wash buffer provided in the kit. Purified cDNA was eluted with 20 μL of 55° C. nuclease-free water. Each cDNA sample was incubated with 7.5 μL of the IVT master mix (2.5 μL of T7 10× reaction buffer, 2.5 μL of T7 enzyme mix and 2.5 μL biotin-NTP mix) at 37° C. for 16 hr. The reaction was stopped with the addition of 75 μL of nuclease-free water to each cRNA sample. The biotinylated, amplified RNA was purified by filtering the cRNA samples through cRNA Filter Cartridges with 350 μL of cRNA binding buffer and 250 μL of 100% ethanol mixed together prior to loading onto the filters. The cRNA filter cartridges with attached RNA were then washed with 650 μL of wash buffer before eluting purified cRNA with 200 μL of 55° C. nuclease-free water.
The cRNA samples were heated at 65° C. for 5 min and collected by pulse centrifugation. After heating at 65 degrees for 5 min, approximately 750 ng of the cRNA sample was aliquoted into separate tubes to which were added ˜5 μL of RNase-free water and 10 μL of Hyb Mix. Approximately 15 μL of the prepared cRNA mix was loaded onto the Illumina Expression BeadChips. Subsequent steps of hybridisation and washing were carried out according to the Whole-Genome Gene Expression Direct Hybridization Assay Guide supplied by Illumina.
The Human HT-12 v4 Expression BeadChips cover more than 47,000 transcripts and known splice variants across the human transcriptome. The MouseRef-8 v2.0 Expression BeadChips cover approximately 25,600 well-annotated RefSeq (Reference Sequence) transcripts, comprising over 19,000 unique genes.
BeadChips were read by the iScan System, and transferred via GenomeStudio into GeneSpring GX v12.5 (Agilent Technologies, Santa Clara, Calif., USA). The expression values were normalized using quantile normalization with default settings. The entities were filtered based on the detection score calculated by GenomeStudio where p≤0.05 was considered significant.
Expression data using mouse gene-specific microarrays were performed for 2-3 individual human SK-Mel-28 xenografts treated by intratumoural injection with 30 μg of Compound 1, along with 3 vehicle-only sites, the data combined. Only those mouse genes for which expression in the Compound 1 treated site was >2 times higher or >2 times lower than in the vehicle-injected site were examined for relevance to wound healing.

In the case of CC=C(C)C(=O)OC1C(C)C2(O)C(C3OC3(CO)C(O)C3(O)C(=O)C(C)=CC32)C2C(C)(C)C12OC(=O)C(C)CC (stereo not shown) [Compound 1, 12-tigloyl-13-(2-methylbutanoyl)-6,7-epoxy-4,5,9,12,13,20-hexahydroxy-1-tigliaen-3-one], the “scratch repopulation and closure (migration study)” value (HaCaT cells) was “enhanced”, the “Acta1: Direction of regulation” value ([1]; 0.5 h) was “Up” and the “Tgm2: Direction of regulation” value ([1]; 0.5 h) was “Up”. The “Thbs2: Direction of regulation” value ([1]; 0.5 h) was “Down”, the “Thbs2: Fold change in expression” value ([1]; 0.5 h, Down) was 3.98 fold and the “Acta1: Fold change in expression” value ([1]; 0.5 h, Up) was 9.3 fold. The “Tgm2: Fold change in expression” value ([1]; 0.5 h, Up) was 2.67 fold, the “Col17a1: Direction of regulation” value ([1]; 1 h) was “Up” and the “Itga7: Direction of regulation” value ([1]; 1 h) was “Up”. For the same compound, the “Krt5: Direction of regulation” value ([1]; 1 h) was “Up”, the “Krt10: Direction of regulation” value ([1]; 1 h) was “Up” and the “Krt15: Direction of regulation” value ([1]; 1 h) was “Up”. For the same compound, the “Krt17: Direction of regulation” value ([1]; 1 h) was “Up”, the “Krtdap: Direction of regulation” value ([1]; 1 h) was “Up” and the “LCe1a1: Direction of regulation” value ([1]; 1 h) was “Up”. For the same compound, the “Lce1a2: Direction of regulation” value ([1]; 1 h) was “Up”, the “Lce1b: Direction of regulation” value ([1]; 1 h) was “Up” and the “Lce1m: Direction of regulation” value ([1]; 1 h) was “Up”. The “Lce1d: Direction of regulation” value ([1]; 1 h) was “Up”, the “Lor: Direction of regulation” value ([1]; 1 h) was “Up” and the “krt14: Direction of regulation” value ([1]; 1 h) was “Up”. The “Col17a1: Fold change in expression” value ([1]; 1 h, Up) was 2.7 fold, the “Itga7: Fold change in expression” value ([1]; 1 h, Up) was 2.1 fold and the “Krt5: Fold change in expression” value ([1]; 1 h, Up) was 2.8 fold. For the same compound, the “Krt10: Fold change in expression” value ([1]; 1 h, Up) was 7 fold, the “Krt15: Fold change in expression” value ([1]; 1 h, Up) was 2.3 fold and the “Krt17: Fold change in expression” value ([1]; 1 h, Up) was 2.9 fold. The “Krtdap: Fold change in expression” value ([1]; 1 h, Up) was 7 fold, the “LCe1a1: Fold change in expression” value ([1]; 1 h, Up) was 2.7 fold and the “Lce1a2: Fold change in expression” value ([1]; 1 h, Up) was 3 fold. For the same compound, the “Lce1b: Fold change in expression” value ([1]; 1 h, Up) was 4.8 fold, the “Lce1m: Fold change in expression” value ([1]; 1 h, Up) was 4.9 fold and the “Lce1d: Fold change in expression” value ([1]; 1 h, Up) was 3.3 fold. For the same compound, the “Lor: Fold change in expression” value ([1]; 1 h, Up) was 11.6 fold, the “krt14: Fold change in expression” value ([1]; 1 h, Up) was 9.4 fold and the “Col17a1: Direction of regulation” value ([1]; 2 h) was “Up”. The “Krt10: Direction of regulation” value ([1]; 2 h) was “Up”, the “Lor: Direction of regulation” value ([1]; 2 h) was “Up” and the “krt14: Direction of regulation” value ([1]; 2 h) was “Up”. For the same compound, the “Col17a1: Fold change in expression” value ([1]; 2 h, Up) was 2 fold, the “Krt10: Fold change in expression” value ([1]; 2 h, Up) was 2.4 fold and the “Lor: Fold change in expression” value ([1]; 2 h, Up) was 2.8 fold. The “krt14: Fold change in expression” value ([1]; 2 h, Up) was 5.6 fold, the “Acta1: Direction of regulation” value ([1]; 4 h) was “Up” and the “CXCL1: Direction of regulation” value ([1]; 4 h) was “Up”. For the same compound, the “Col17a1: Direction of regulation” value ([1]; 4 h) was “Up”, the “Egr1: Direction of regulation” value ([1]; 4 h) was “Up” and the “Krt10: Direction of regulation” value ([1]; 4 h) was “Up”. The “Krt17: Direction of regulation” value ([1]; 4 h) was “Up”, the “Krt71: Direction of regulation” value ([1]; 4 h) was “Up” and the “Krtdap: Direction of regulation” value ([1]; 4 h) was “Up”. For the same compound, the “LCe1a1: Direction of regulation” value ([1]; 4 h) was “Up”, the “Tgm2: Direction of regulation” value ([1]; 4 h) was “Down” and the “krt14: Direction of regulation” value ([1]; 4 h) was “Up”. The “Tgm2: Fold change in expression” value ([1]; 4 h, Down) was 2 fold, the “Acta1: Fold change in expression” value ([1]; 4 h, Up) was 30.3 fold and the “CXCL1: Fold change in expression” value ([1]; 4 h, Up) was 12.1 fold. The “Col17a1: Fold change in expression” value ([1]; 4 h, Up) was 3.2 fold, the “Egr1: Fold change in expression” value ([1]; 4 h, Up) was 4.7 fold and the “Krt10: Fold change in expression” value ([1]; 4 h, Up) was 8.6 fold. The “Krt17: Fold change in expression” value ([1]; 4 h, Up) was 10 fold, the “Krt71: Fold change in expression” value ([1]; 4 h, Up) was 3.2 fold and the “Krtdap: Fold change in expression” value ([1]; 4 h, Up) was 3.8 fold. For the same compound, the “LCe1a1: Fold change in expression” value ([1]; 4 h, Up) was 2.8 fold, the “krt14: Fold change in expression” value ([1]; 4 h, Up) was 9.7 fold and the “Acta1: Direction of regulation” value ([1]; 8 h) was “Up”. The “Egr1: Direction of regulation” value ([1]; 8 h) was “Up”, the “Krt10: Direction of regulation” value ([1]; 8 h) was “Down” and the “Krt17: Direction of regulation” value ([1]; 8 h) was “Down”. The “Krt10: Fold change in expression” value ([1]; 8 h, Down) was 2.1 fold, the “Krt17: Fold change in expression” value ([1]; 8 h, Down) was 2 fold and the “Acta1: Fold change in expression” value ([1]; 8 h, Up) was 8.5 fold. The “Egr1: Fold change in expression” value ([1]; 8 h, Up) was 5.34 fold.
